Values belong to the compound of their own block, whether it stands above or below them.
Legend:
Format in all cases: biochemical, Lithobates sylvaticus
[1] = target: T1, Bound AMPD (wood frog skeletal muscle, frozen frogs); test: AMP deaminase activity, glutamate dehydrogenase-coupled, NADH […] nm; details: as Mg·GTP, 0.5 mM AMP, pH 7.2, 25°C, bound enzyme, allosteric
T1 construct: gene AMPD1; high phosphate form (sites not known); not purified

[2] = target: T2, Free AMPD (wood frog skeletal muscle, control frogs); test: AMP deaminase activity, […] nm absorbance; details: as Mg·GTP, 0.5 mM AMP, pH 7.2, 25°C, allosteric
T2 construct: gene AMPD1; native, soluble (free) form in skeletal muscle extract of 5°C-acclimated control frogs, Sephadex G-50 desalted, not purified

[3] = target: T3, Bound AMPD (wood frog skeletal muscle, control frogs); test: AMP deaminase activity, glutamate dehydrogenase-coupled, NADH […] nm; details: as Mg·GTP, 0.5 mM AMP, pH 7.2, 25°C, bound enzyme, allosteric
T3 construct: gene AMPD1; low phosphate form; not purified

[4] = system: T3, Bound AMPD (wood frog skeletal muscle, control frogs); test: AMP deaminase activity, glutamate dehydrogenase-coupled, NADH […] nm, Hill fit; details: Hill coefficient 1.03, pH 7.2, 25°C, no glucose, bound enzyme, read-out: S0.5 AMP
[5] = system: T2, Free AMPD (wood frog skeletal muscle, control frogs); test: AMP deaminase activity, […] nm absorbance, Hill fit; details: after Sephadex G-50 desalting, Hill coefficient 2.37, pH 7.2, 25°C, read-out: After spun columns
[6] = system: T1, Bound AMPD (wood frog skeletal muscle, frozen frogs); test: AMP deaminase activity, glutamate dehydrogenase-coupled, NADH […] nm, Hill fit; details: Hill coefficient 1.12, pH 7.2, 25°C, no glucose, bound enzyme, read-out: S0.5 AMP
[7] = target: T1, Bound AMPD (wood frog skeletal muscle, frozen frogs); test: AMP deaminase activity, glutamate dehydrogenase-coupled, NADH […] nm; details: activation constant (half-maximal activation, 3.42-fold), as Mg·ADP, 0.5 mM AMP, pH 7.2, 25°C, bound enzyme, allosteric
[8] = target: T3, Bound AMPD (wood frog skeletal muscle, control frogs); test: as above; details: activation constant (half-maximal activation, 1.25-fold), as Mg·ADP, 0.5 mM AMP, pH 7.2, 25°C, bound enzyme, allosteric
[9] = target: T2, Free AMPD (wood frog skeletal muscle, control frogs); test: AMP deaminase activity, […] nm absorbance; details: 0.5 mM AMP, pH 7.2, 25°C, allosteric

IC50 [1]: 100 ± 10 µM
IC50 [2]: 150 ± 20 µM
IC50 [3]: 80 ± 10 µM
SMILES: Nc1nc2c(ncn2[C@@H]2O[C@H](COP(=O)(O)OP(=O)(O)OP(=O)(O)O)[C@@H](O)[C@H]2O)c(=O)[nH]1 [Mg·GTP]

Km [4]: 460 ± 30 µM
Km [5]: 1350 ± 80 µM
Km [6]: 1500 ± 190 µM
SMILES: Nc1ncnc2c1ncn2[C@@H]1O[C@H](COP(=O)(O)O)[C@@H](O)[C@H]1O [AMP]

EC50 [7]: 1140 ± 100 µM
EC50 [8]: 3750 ± 370 µM
EC50 ([9]; activation constant (half-maximal activation, 2.17-fold), as Mg·ADP): 1120 ± 150 µM
SMILES: Nc1ncnc2c1ncn2[C@@H]1O[C@H](COP(=O)(O)OP(=O)(O)O)[C@@H](O)[C@H]1O [Mg·ADP]

EC50 ([9]; activation constant (half-maximal activation, 1.53-fold), as Mg·ATP): 1900 ± 30 µM
SMILES: Nc1ncnc2c1ncn2[C@@H]1O[C@H](COP(=O)(O)OP(=O)(O)OP(=O)(O)O)[C@@H](O)[C@H]1O [Mg·ATP]

— PMC2375871, “Regulation of 5'-adenosine monophosphate deaminase in the freeze tolerant wood frog, Rana sylvatica” (BMC Biochemistry, 2008)
